Data from EP2108954A1, “A test system for detecting intracellular cyclic nucleotide level and methods and uses thereof” (Max-Planck-Gesellschaft zur Förderung der Wissenschaften …, priority 2008, dated 2009).

Columns and labels:
[1] = tested on: hHCN2; assay: Gs coupling test: hHCN2 current in HEK293 cells coexpressing ORs and hHCN2; format: cell-based, human; conditions: 2 min 100 nM Etb; Or22a, Or83b and hHCN2 coexpressed
Protocol: (§1) HEK293 cells were cultured as described by Wicher and colleagues (Wicher et al., J. Biol. Chem. 281, 3227-36 (2006)). In brief, HEK293 cells were cultured at a density of ∼2*10^4 per 35-mm dish and transfected with 1 µg pcDNA3-DOR22a-GFP and 1 µg pcDNA3-DOR83b-GFP (Neuhaus, et al., Nat. Neurosci. 8, 15-17 (2005); DNAs were a generous gift of Dr. E. Neuhaus and Dr. H. Hatt) using Roti-Fect transfection kit (Roth, Karlsruhe, Germany). In some experiments we transfected cells with pcDNA3-DOR22a-GFP or pcDNA3-DOR83b-GFP alone. We also examined the properties of DOR47a, which was cloned, using standard molecular biology methods into a pcDNA3.1(-) expression vector. To test for putative G-protein coupling, cells were transfected with the respective OR-DNA together with 1.5 µg hHCN2/pcDNA3 (provided by M. Biel, Munich, Germany), with 1 µg hKCNQ4/pcDNA3.1 or with 1 µg hCNGA2/pCMV6-XL4 (Origene, Rockville, MD, USA).
Ion currents in HEK293 cells were measured with the patch-clamp technology as described (Wicher et al, J. Biol. Chem. 281, 3227-36 (2006)). In brief, ion currents in HEK293 cells were measured at room temperature using whole-cell patch-clamp with appropriate compensation of series resistance and of capacitive currents. Additional experiments were performed in the outside-out configuration. […]

[2] = target: T1, Or22a and Or83b (Drosophila melanogaster, UniProt P81909+Q9VNB5); assay: Outside-out patch recording from HEK293 cells coexpressing Or22a and Or83b; format: cell-based; conditions: Etb 100 nM, 1 s, -60 mV; for Ii Peak size / Ii Peak time / Ii Recov. / Im Latency / Im Peak size / Im Peak time / Im Recov.: Or22a C-terminal GFP fusion protein
T1 construct: expressed in transfected cells; host or cells: HEK293
T1 sequence (P81909 1-397): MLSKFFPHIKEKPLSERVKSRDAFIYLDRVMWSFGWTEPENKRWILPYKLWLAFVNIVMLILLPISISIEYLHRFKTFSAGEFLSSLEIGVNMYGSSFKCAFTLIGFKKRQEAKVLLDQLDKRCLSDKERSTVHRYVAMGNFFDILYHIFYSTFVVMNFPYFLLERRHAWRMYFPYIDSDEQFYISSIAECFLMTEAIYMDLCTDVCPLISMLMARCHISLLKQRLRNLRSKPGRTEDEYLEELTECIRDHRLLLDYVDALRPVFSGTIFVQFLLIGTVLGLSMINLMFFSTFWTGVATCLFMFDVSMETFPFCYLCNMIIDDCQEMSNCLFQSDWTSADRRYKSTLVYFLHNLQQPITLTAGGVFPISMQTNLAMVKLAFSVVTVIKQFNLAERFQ
T1 sequence (Q9VNB5 1-486): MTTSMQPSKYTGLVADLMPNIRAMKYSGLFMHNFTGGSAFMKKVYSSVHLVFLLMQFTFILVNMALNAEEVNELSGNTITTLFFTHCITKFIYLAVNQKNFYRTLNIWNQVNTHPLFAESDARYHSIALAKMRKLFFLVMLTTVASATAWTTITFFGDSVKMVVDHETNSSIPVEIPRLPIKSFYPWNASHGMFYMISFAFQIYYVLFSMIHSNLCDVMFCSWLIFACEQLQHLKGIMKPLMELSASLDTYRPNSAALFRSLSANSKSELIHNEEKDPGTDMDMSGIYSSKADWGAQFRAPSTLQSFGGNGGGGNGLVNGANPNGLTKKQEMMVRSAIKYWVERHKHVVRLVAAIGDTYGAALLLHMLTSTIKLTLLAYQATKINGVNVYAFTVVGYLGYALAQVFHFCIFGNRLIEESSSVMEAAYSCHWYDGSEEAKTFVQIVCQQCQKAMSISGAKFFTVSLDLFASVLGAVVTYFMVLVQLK
Protocol: as §1
Ion currents in HEK293 cells were measured with the patch-clamp technology as described (Wicher et al, J. Biol. Chem. 281, 3227-36 (2006)). In brief, ion currents in HEK293 cells were measured at room temperature using whole-cell patch-clamp with appropriate compensation of series resistance and of capacitive currents. Additional experiments were performed in the outside-out configuration. Current measurements and data acquisition were performed using an EPC9 patch-clamp amplifier controlled by PatchMaster software (both HEKA Elektronik, Lambrecht, Germany). Patch-clamp pipettes were fabricated from borosilicate capillaries. Pipettes for whole-cell recordings had resistances of 2-4 MΩ for excised-patch recordings the pipette resistance was up to 15 MΩ.
The standard pipette solution contained (in mM) 140 KCl, 4 NaCl, 2.2 CaCl2, 2 Mg-ATP, 0.05 Na-GTP, 5 EGTA, 10 HEPES (pH 7.3), and the standard bath solution contained (in mM) 135 NaCl, 5 KCI, 1 CaCl2, 1 MgCl2, 10 HEPES, 10 glucose (pH 7.4). To differentiate between ionotropic and metabotropic pathways of receptor activation (Fig. 2a-d) the pipette solution contained either 2 mM ATP plus 2 mM GTP or 2 mM ADP plus 2 mM GDP (both for whole-cell and outside-out configuration). For the preparation of Cl^--free solutions the chloride salts were substituted by gluconate salts. The pipette Cs^+ solution contained (in mM) 140 CsCl, 1 Mg-ATP, 10 EGTA, 10 HEPES (pH = 7.3), and the Cs^+ bath solution contained (in mM) 140 CsCl, 15 glucose, 15 HEPES (pH = 7.4). The Ca^2+-free bath solution contained (in mM) 140 NaCl, 15 glucose, 15 HEPES, and the Na^+-free bath solution contained (in mM) 140 NMDG-Cl, 10 CaCl2, 10 glucose, 15 HEPES.
With the exception of GDP-γ-S, which was applied via the patch pipette, all substances were applied to the bath using either a bath perfusion system (BPS4 from ALA, New York, USA) or a rapid solution changer (RSC160 from Biologic, Claix, France) which were controlled by the PatchMaster software (HEKA Elektronik).

[3] = target: T1, Or22a and Or83b; assay: Whole-cell patch-clamp of currents in HEK293 cells coexpressing Or22a and Or83b; format: cell-based; conditions: 500 µM GDP-β-S in the pipette; n = 11

In the case of `CCCC(=O)OCC` [Etb, ethyl butyrate], the “effect on hHCN2 current time course” value [1] was “accelerated the current time course”, the “latency of Ii” value [2] was under 0.5 s and the “Ii Peak size” value ([2]; ADP and GDP (-)) was 1.6 ± 0.3 pA. For the same molecule, the “Ii Peak time” value ([2]; ADP and GDP (-)) was 1.38 ± 0.23 s, the “Ii Recov.” value ([2]; ADP and GDP (-)) was 4.5 ± 1.2 s and the “Im Latency” value ([2]; ADP and GDP (-)) was 11 ± 3 s. The “Im Peak size” value ([2]; ADP and GDP (-)) was 0.5 ± 0.2 pA, the “Im Peak time” value ([2]; ADP and GDP (-)) was 36 ± 8 s and the “Im Recov.” value ([2]; ADP and GDP (-)) was 58 ± 9 s. For the same molecule, the “Ii Peak size” value ([2]; ATP and GTP (+)) was 1.3 ± 0.3 pA, the “Ii Peak time” value ([2]; ATP and GTP (+)) was 1.13 ± 0.11 s and the “Ii Recov.” value ([2]; ATP and GTP (+)) was 5.2 ± 1.1 s. For the same molecule, the “Im Latency” value ([2]; ATP and GTP (+)) was 10 ± 2 s, the “Im Peak size” value ([2]; ATP and GTP (+)) was 1.7 ± 0.4 pA and the “Im Peak time” value ([2]; ATP and GTP (+)) was 33 ± 4 s. The “Im Recov.” value ([2]; ATP and GTP (+)) was 45 ± 7 s and the “Hill coefficient of Etb-induced currents” value [3] was 1.1.
